Paper PMC10613967, “The anti-cancer efficacy of a novel phenothiazine derivative is independent of dopamine and serotonin receptor inhibition” (Frontiers in Oncology, 2023)
Counter-ions that a name gives are not always drawn. Like-named read-outs stand apart in the source and are kept apart here.

Experiments:
[1] = test system: MDA-MB-231; assay: Cell viability assay (Cell-Titer-Blue); format: cell-based, human; conditions: 72h; read-out: Calculated IC50
Procedure: (§1) Cells were seeded in 96-well plates at a suitable cell density for the growth rates of individual cell lines and the incubation time of the assay. […] Cell viability was determined using Cell-Titer-Blue assay (Promega) according to manufacturer’s instructions. The Synergy HT plate reader (Biotek, Winooski, VT) was used for signal quantification and the fluorescence values were normalized to the vehicle well for each cell line. Absolute IC50 and Growth rate inhibition GR50 ([27]) were calculated with GraphPadPrism software (GraphPad Software, Inc.).

[2] = test system: HCC1806; assay: Cell viability assay (Cell-Titer-Blue); format: cell-based, human; conditions: 72h; read-out: Calculated IC50
Procedure: (§2) All cell lines were grown at 37°C in a 5% CO2 atmosphere in the ATCC-specified medium containing 10% FBS and 1% NEAA ( Table 1 ).
as §1

[3] = test system: ZR-75-1; assay: Cell viability assay (Cell-Titer-Blue); format: cell-based, human; conditions: 72h; read-out: Calculated IC50
Procedure: as §2, §1

[4] = test system: PC-3; assay: Cell viability assay (Cell-Titer-Blue); format: cell-based, human; conditions: 72h; read-out: Calculated IC50
Procedure: as §2, §1

[5] = test system: LNCaP; assay: Cell viability assay (Cell-Titer-Blue); format: cell-based, human; conditions: 72h; read-out: Calculated IC50
Procedure: as §2, §1

[6] = test system: DU145; assay: Cell viability assay (Cell-Titer-Blue); format: cell-based, human; conditions: 72h; read-out: Calculated IC50
Procedure: as §2, §1

[7] = test system: 22Rv1; assay: Cell viability assay (Cell-Titer-Blue); format: cell-based, human; conditions: 72h; read-out: Calculated IC50
Procedure: as §1

[8] = test system: HT29; assay: Cell viability assay (Cell-Titer-Blue); format: cell-based, human; conditions: 72h; read-out: Calculated IC50
Procedure: as §1

[9] = test system: HCT116; assay: Cell viability assay (Cell-Titer-Blue); format: cell-based, human; conditions: 72h; read-out: Calculated IC50
Procedure: as §1

[10] = test system: PANC1; assay: Cell viability assay (Cell-Titer-Blue); format: cell-based, human; conditions: 72h; read-out: Calculated IC50
Procedure: as §1

[11] = test system: BxPC3; assay: Cell viability assay (Cell-Titer-Blue); format: cell-based, human; conditions: 72h; read-out: Calculated IC50
Procedure: as §1

[12] = test system: A498; assay: Cell viability assay (Cell-Titer-Blue); format: cell-based, human; conditions: 72h; read-out: Calculated IC50
Procedure: as §2, §1

[13] = test system: 786-O; assay: Cell viability assay (Cell-Titer-Blue); format: cell-based, human; conditions: 72h; read-out: Calculated IC50
Procedure: as §2, §1

[14] = test system: HepG2; assay: Cell viability assay (Cell-Titer-Blue); format: cell-based, human; conditions: 72h; read-out: Calculated IC50
Procedure: as §2, §1

[15] = test system: TCCSUP; assay: Cell viability assay (Cell-Titer-Blue); format: cell-based, human; conditions: 72h; read-out: Calculated IC50
Procedure: as §2, §1

[16] = test system: RT4; assay: Cell viability assay (Cell-Titer-Blue); format: cell-based, human; conditions: 72h; read-out: Calculated IC50
Procedure: as §2, §1

[17] = test system: U87; assay: Cell viability assay (Cell-Titer-Blue); format: cell-based, human; conditions: 72h; read-out: Calculated IC50
Procedure: as §1

[18] = test system: U251; assay: Cell viability assay (Cell-Titer-Blue); format: cell-based, human; conditions: 72h; read-out: Calculated IC50
Procedure: as §1

[19] = test system: A375 cells; assay: Cell viability assay (Cell-Titer-Blue); format: cell-based, human
Procedure: as §1

[20] = test system: SKMEL28; assay: Cell viability assay (Cell-Titer-Blue); format: cell-based, human; conditions: 72h; read-out: Calculated IC50
Procedure: as §1

[21] = test system: RPMI7951; assay: Cell viability assay (Cell-Titer-Blue); format: cell-based, human; conditions: 72h; read-out: Calculated IC50
Procedure: as §1

[22] = test system: Hs852T; assay: Cell viability assay (Cell-Titer-Blue); format: cell-based, human; conditions: 72h; read-out: Calculated IC50
Procedure: as §2, §1

[23] = test system: A101D; assay: Cell viability assay (Cell-Titer-Blue); format: cell-based, human; conditions: 72h; read-out: Calculated IC50
Procedure: as §2, §1

[24] = test system: WM-266-4; assay: Cell viability assay (Cell-Titer-Blue); format: cell-based, human; conditions: 72h; read-out: Calculated IC50
Procedure: as §2, §1

[25] = test system: A2058; assay: Cell viability assay (Cell-Titer-Blue); format: cell-based, human; conditions: 72h; read-out: Calculated IC50
Procedure: as §2, §1

[26] = test system: panel of cancer cell lines; assay: Cell viability assay across the panel of cell lines; format: cell-based, human; conditions: 72h of drug exposure; read-out: Absolute IC50, range across the panel
Procedure: as §2, §1

[27] = test system: A375 cells; assay: Cell cycle analysis (PI staining, flow cytometry); format: cell-based, human; conditions: 24h
Procedure: (§3) A375 cells were seeded at 250,000 cells/well in 6-well plates and left to attach overnight. […] For cell cycle analysis, cells were detached with trypsin, fixed in ethanol 70%, treated with RNase A, mixed with propidium iodide, and processed with the Becton Dickinson LSR II flow cytometer. Analysis was performed with ModFit LT software. […] Samples were processed with the Becton Dickinson LSR II flow cytometer, and the analysis was performed with FlowJo software. Annexin V positive and PI negative cells were counted as apoptotic cells.

[28] = test system: A375 cells; assay: Apoptosis assay (Annexin V staining, flow cytometry); format: cell-based, human; conditions: 24h exposure
Procedure: as §3

[29] = test system: A375 cells; assay: Immunofluorescence (α-tubulin, pericentrin, DNA); format: cell-based, human; conditions: 20µM, 24h
Procedure: At the end of the incubation, cells were fixed in 4% PFA, permeabilized in PBS-0.2% Triton X100, and blocked in PBS-2.5% BSA before antibody incubation. Cells were incubated with anti-Tubulin and anti-Pericentrin antibodies overnight at 4°C, and then with secondary antibodies for 1 h at room temperature ( Table 1 ). All antibodies were diluted in PBS-2.5% BSA. The coverslips were then mounted on cover glass with a DAPI (4’,6-diamidino-2-phenylindole)-containing mounting media (Invitrogen P36962, Waltham, MA), and imaged with a Leica SP8 confocal microscope.

[30] = test system: variety of cancer cell types; conditions: in vitro; read-out: IC50, cytotoxicity; cited from earlier work

Cl.NCCCCCCNS(=O)(=O)c1cccc2c(Cl)cccc12 [W-7, W-7 hydrochloride]
IC50 [1]: 34.6 µM | IC50 [2]: 26.9 µM | IC50 [3]: 25.2 µM | IC50 [4]: 40.8 µM | IC50 [5]: 36.6 µM | IC50 [6]: 37.3 µM | IC50 [7]: 39.1 µM | IC50 [8]: 26.4 µM | IC50 [9]: 27.9 µM | IC50 [10]: 32.7 µM | IC50 [11]: 38.1 µM | IC50 [12]: 28 µM | IC50 [13]: 33.5 µM | IC50 [14]: 26.8 µM | IC50 [15]: 25.9 µM | IC50 [16]: 45.2 µM | IC50 [17]: 56.8 µM | IC50 [18]: 30 µM | IC50 ([19]; 72h, read-out: Calculated IC50): 21.8 µM | IC50 [20]: 29.3 µM | IC50 [21]: 26.5 µM | IC50 [22]: 24.5 µM | IC50 [23]: 26.9 µM | IC50 [24]: 28.2 µM | IC50 [25]: 24.3 µM | IC50 [26]: 21.8 to 56.8 µM | cell cycle arrest (in words) [27]: did not induce a cell cycle arrest

OCCN1CCN(CCCN2c3ccccc3Sc3ccc(C(F)(F)F)cc32)CC1 [Fluphenazine, fluphenazine hydrochloride]
concentrations inducing apoptosis (annexin V staining) [28]: ≥ 20 µM | concentrations inducing G0/G1 cell cycle arrest [27]: ≥ 10 µM | mitotic phenotype by immunofluorescence [29]: dramatic decrease in the number of cells in mitosis | IC50 [30]: 5 to 20 µM

CN(C)CCCN1c2ccccc2Sc2ccc(Cl)cc21 [Chlorpromazine, chlorpromazine hydrochloride]
IC50 ([19]; Homo sapiens, A-375, 24h treatment, read-out: IC50, cell viability): 13.6 µM | cells in the G2/M phase ([27]; 20µM): 69.8% | cell cycle arrest (in words) [27]: induces a cell cycle arrest in G2/M | mitotic phenotype by immunofluorescence [29]: cells often appeared binucleated
